Reference: patent US9877978B2, “Compositions comprising NDGA derivatives and sorafenib and their use in treatment of cancer” (THE JOHNS HOPKINS UNIVERSITY, priority 2012, dated 2018)
Read-outs that look alike come from different tables or passages of the source.

What was measured:
[1] = test system: caspase activation (procaspases 9, 4 and 7, caspase 3) in AsPc-1 human pancreatic carcinoma cells; experiment: Western immunoblot analysis of caspase activation; format: cell-based; conditions: for caspase activation (procaspase cleavage): 80 μM M4N, 40 μM sorafenib (FIG. 17); for caspase 3 activation: after 18 h of treatment
Experimental: Western immunoblot analysis. Treated and control cells were washed with PBS and suspended in RIPA buffer (150 mM NaCl, 50 mM Tris-HCL (pH8.0), 0.1% SDS, 1% NP40, and 0.5% deoxycholate) supplemented with protease inhibitor cocktail. After a 20 min incubation on ice, the suspension was centrifuged to clear the solubilized proteins. Bradford protein assay were performed and samples containing equivalent amounts of protein were resolved by standard SDS-polyacrylamide gel electrophoresis and transferred to nirocellulose membrane. The membranes were blocked with skim milk, and incubated with primary antibodies at 4° C. overnight and then with secondary antibody conjugated with horse radish peroxidase at room temperature for 1 h. The signals were detected by western blot chemiluminescence detection reagent.

[2] = test system: HepG2 human HCC cells; experiment: MTT cytotoxicity assay with median-effect / combination index analysis; format: cell-based; conditions: for DRI value at ED75 / DRI value at ED90 / DRI value at ED95: single agent vs combination; for IC50: Homo sapiens
Experimental: Cytotoxicity assay. […] M4N was used at concentrations between 0 and 80 μM. For the combination of M4N and sorafenib a constant molar ratio of 2:1 (M4N:sorafenib) was used. Twenty four hours after drug addition, cytotoxicity was assessed with the MTT assay with […] measured with a Power Wave 200 microplate reader.
Evaluation of drug interactions. The combination index (CI) isobologram method of Chou and Talalay, which is based on the median-effect principle, was used to calculate synergism or antagonism for the combined drug effects. Dose-effect curves for the two drugs, singly and in combination, in serially diluted concentrations were plotted using the median-effect equation and plot and the CI equation and plot. CI values at different effect and dose levels and isobolograms were generated automatically using the computer software CompuSyn. With this method, additive, synergistic, or antagonistic effects are indicated by CI values of 1, <1, and >1, respectively. Comparison of the ratio of doses required to reach a given effect level for each single drug and the drugs in combination was used to determine the dose-reduction.

[3] = HepG2, concurrent administration of M4N

COc1ccc(C[C@@H](C)[C@@H](C)Cc2ccc(OC)c(OC)c2)cc1OC [M4N, tetra-O-methyl nordihydroguaiaretic acid]
caspase activation (procaspase cleavage) [1]: little effect on caspase activation | caspase 3 activation [1]: neither drug nor their combination had an effect | DRI value at ED75 ([2]; HepG2, 24 h): 3.15 | DRI value at ED90 ([2]; HepG2, 24 h): 1.75 | DRI value at ED95 ([2]; HepG2, 24 h): 1.17 | IC50 ([2]; HepG2, 24-Hour Treatment, combination at constant molar ratio 2:1 (M4N:sorafenib), read-out: Dm, median effect dose (concentration that inhibits cell growth by 50%)): 283 µM

CNC(=O)c1cc(Oc2ccc(NC(=O)Nc3ccc(Cl)c(C(F)(F)F)c3)cc2)ccn1 [sorafenib]
caspase activation (procaspase cleavage) [1]: decreased levels of procaspases 9, 4 and 7 | caspase 3 activation [1]: neither drug nor their combination had an effect | DRI value at ED75 ([2]; HepG2, 24 h): 92815.6 | DRI value at ED90 ([2]; HepG2, 24 h): 489945.0 | DRI value at ED95 ([2]; HepG2, 24 h): 1519041 | DRI: decrease of concentration necessary to inhibit growth of 50% of cells (ED50) [2, 3]: 17,583.1 fold | DRI: decrease of concentration necessary to inhibit growth of 75% of cells (ED75) [2, 3]: 92,815.6 fold | DRI: decrease of concentration necessary to inhibit growth of 95% of cells (ED95) [2, 3]: 151,9041 fold | IC50 ([2]; HepG2, after 24 h of treatment (FIG. 4), read-out: IC50 against HepG2 cells): ~30 µM | cytotoxic effect ([2]; sorafenib 20 μM alone, HepG2, 24 h): ~20%
